{"source": "patent US20040009973A1", "about": "“Novel potassium channels modulators” (4SC AG, priority 2002, published 2004)", "key": {"[1]": {"target": "BK currents, cloned α-hSlo and β-bSlo in CHO cells (Homo sapiens, UniProt Q12791)", "sequence (Q12791 whole entry)": "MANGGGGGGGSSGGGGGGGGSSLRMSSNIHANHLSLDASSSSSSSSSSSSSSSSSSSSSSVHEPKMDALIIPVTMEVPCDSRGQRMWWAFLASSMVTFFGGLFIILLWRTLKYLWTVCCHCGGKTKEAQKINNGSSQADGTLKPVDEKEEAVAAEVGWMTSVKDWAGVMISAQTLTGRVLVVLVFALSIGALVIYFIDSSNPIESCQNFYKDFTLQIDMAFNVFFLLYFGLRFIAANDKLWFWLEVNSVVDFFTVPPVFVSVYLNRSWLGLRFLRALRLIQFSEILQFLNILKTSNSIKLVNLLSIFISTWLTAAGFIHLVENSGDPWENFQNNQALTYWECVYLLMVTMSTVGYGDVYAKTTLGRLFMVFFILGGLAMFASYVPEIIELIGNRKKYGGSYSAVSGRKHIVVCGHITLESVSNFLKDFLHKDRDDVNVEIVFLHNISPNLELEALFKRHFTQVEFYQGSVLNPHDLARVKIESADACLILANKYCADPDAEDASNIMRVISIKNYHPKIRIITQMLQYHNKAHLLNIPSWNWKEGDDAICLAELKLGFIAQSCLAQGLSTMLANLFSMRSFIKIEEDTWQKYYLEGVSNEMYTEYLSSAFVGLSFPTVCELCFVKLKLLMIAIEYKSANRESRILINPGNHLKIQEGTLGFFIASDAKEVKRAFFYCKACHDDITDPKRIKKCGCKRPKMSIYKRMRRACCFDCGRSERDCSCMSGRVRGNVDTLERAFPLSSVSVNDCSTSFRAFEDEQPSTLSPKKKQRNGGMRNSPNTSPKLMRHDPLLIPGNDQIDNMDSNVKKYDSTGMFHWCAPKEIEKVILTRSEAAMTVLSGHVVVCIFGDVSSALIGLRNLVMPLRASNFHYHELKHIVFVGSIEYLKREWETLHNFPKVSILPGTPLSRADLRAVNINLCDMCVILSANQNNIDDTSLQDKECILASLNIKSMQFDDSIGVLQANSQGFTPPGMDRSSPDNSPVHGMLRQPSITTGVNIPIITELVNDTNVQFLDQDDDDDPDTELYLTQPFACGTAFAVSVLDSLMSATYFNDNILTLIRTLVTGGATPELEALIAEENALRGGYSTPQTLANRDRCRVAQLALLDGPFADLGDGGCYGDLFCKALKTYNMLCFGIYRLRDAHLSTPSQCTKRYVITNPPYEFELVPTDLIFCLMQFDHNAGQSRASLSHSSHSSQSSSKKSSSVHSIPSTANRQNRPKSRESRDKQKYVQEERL", "sequence (Q28067 2-191 partner)": "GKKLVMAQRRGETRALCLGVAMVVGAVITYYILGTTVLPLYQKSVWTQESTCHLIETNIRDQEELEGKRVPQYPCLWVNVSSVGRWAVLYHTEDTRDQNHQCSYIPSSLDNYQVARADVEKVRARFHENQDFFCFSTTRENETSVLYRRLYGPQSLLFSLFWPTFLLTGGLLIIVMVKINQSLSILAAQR", "experiment": "Electrophysiological studies: whole-cell patch-clamp of BK currents", "format": "cell-based", "details": "compound 20 μM, steady-state BK current, free internal Ca2+ 1×10^−6M", "method": "Electrophysiological Studies:\nCHO cells permanently transfected with cloned α-hSlo and β-bSlo were maintained as described above and used for electrophysiological characterisation, The whole-cell configuration of the patch-clamp technique was used to determine the effect of modulators on BK currents in these cells. The cell line expressing functional BK currents (Zhou et al., Pflügers Arch. 436, p.725 (1998)) were plated onto glass cover slips with a density of 1-5×10^4 cells/cover slip, incubated (37° C., 5% CO2) and used for patch-clamp experiments within 24-48 h. Cells were bathed in mammalian ringer solutions containing (in mM): 160NaCl, 4.5KCl, 2CaCl2, 1MgCl2, 10 HEPES, adjusted to pH 7.4, 290-310 mOsm. The internal pipette solution contained (in mM): 160KCl, 2CaCl2, 1MgCl2, 10 HEPES, EGTA was added to reach a free [Ca^2+]internal=1×10^−6M, adjusted to pH 7.2, 290-310 mOsm. Borosilicate pipettes with a resistance of 2-3 MΩ were filled with the internal solution and mounted on an appropriate holder. Prior to measurements a recording chamber was mounted onto the cell-plated cover slips and the cells were perfused with a simple syringe driven perfusion system. Compounds were added in the final concentration ([…]) to the bath solution using the same system. An EPC-9 patch-clamp amplifier with Pulse and PulseFit software (HEKA) was used to record and analyze currents.\nAfter addition of the compounds to the bath solution their modulating effect was determined by the increase or decrease of specific BK currents after reaching steady-state relative to the BK current before application of drugs (see Table II)."}, "[2]": {"target": "T1, BK potassium channel, cloned hSlo (α-hSlo and β-bSlo) in CHO cells (Homo sapiens, UniProt Q12791)", "T1 construct": "expressed in transfected cells; host or cells: CHO cells, permanently transfected", "T1 sequence (Q12791 1-1178 isoform Q12791-5)": "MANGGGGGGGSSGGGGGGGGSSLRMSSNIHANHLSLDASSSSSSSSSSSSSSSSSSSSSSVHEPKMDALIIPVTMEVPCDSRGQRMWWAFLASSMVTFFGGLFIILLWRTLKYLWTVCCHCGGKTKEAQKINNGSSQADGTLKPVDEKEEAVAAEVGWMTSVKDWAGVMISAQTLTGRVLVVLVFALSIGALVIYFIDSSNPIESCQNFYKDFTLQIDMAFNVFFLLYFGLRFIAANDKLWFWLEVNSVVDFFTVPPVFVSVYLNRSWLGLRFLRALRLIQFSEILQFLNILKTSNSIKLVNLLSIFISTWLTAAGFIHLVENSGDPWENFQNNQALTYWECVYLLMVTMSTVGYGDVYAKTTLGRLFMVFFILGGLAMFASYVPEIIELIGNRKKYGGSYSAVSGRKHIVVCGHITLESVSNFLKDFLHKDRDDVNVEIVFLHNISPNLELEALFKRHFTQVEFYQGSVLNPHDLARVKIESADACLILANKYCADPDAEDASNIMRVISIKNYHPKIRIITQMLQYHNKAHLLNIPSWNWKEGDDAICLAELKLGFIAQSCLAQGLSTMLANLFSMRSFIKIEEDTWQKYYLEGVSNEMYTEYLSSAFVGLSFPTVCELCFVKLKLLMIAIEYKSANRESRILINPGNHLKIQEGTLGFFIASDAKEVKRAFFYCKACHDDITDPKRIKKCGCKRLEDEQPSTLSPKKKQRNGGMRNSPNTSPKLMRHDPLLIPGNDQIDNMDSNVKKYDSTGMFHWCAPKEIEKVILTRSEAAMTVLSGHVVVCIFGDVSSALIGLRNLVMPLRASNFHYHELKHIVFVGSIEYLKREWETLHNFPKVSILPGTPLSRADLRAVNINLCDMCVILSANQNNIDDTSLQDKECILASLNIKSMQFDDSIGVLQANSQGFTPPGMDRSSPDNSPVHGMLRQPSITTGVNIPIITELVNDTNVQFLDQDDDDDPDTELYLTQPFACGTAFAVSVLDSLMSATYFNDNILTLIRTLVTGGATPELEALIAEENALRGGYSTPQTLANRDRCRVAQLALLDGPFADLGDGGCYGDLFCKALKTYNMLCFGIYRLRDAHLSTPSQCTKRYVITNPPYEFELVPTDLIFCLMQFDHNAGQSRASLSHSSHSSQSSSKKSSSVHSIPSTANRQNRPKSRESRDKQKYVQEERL", "T1 sequence (Q28067 2-191 partner limits assumed)": "as the sequence (Q28067 2-191 partner) above", "experiment": "Em-Assay: membrane potential with voltage sensitive dye DiBAC(4)3, fluorescence plate reader", "format": "cell-based", "details": "compound 50 μM; NS004 25 or 50 μM; hSlo transfected CHO cells; change in DiBAC(4)3 fluorescence intensity", "in_short": "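CHO cells stably expressing α-hSlo and β-bSlo were loaded 30-60 min at 37° C with 2 μM DiBAC(4)3 in PBS/20 mM HEPES pH 7.4. Fluorescence (485/520 nm) was read every 60 s: 7 min baseline, then 15 min after compound. Background-subtracted, normalized change was expressed as a ratio to reference NS004.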"}}}
{"smiles": "FC(F)(F)c1cc(NCc2ccc(Br)cc2)cc(NCc2ccc3ccccc3c2)c1", "note": "[Compound 6, N-(4-Bromobenzyl)-N′-naphthalen-2-ylmethyl-5-trifluoromethylbenzene-1,3-diamine]", "values": [{"measurement": "Effect: ratio of current increase after application of compound relative to the control current before compound application", "setting": "[1]", "value": "++ (>1, 1-1.2 = ++)"}, {"measurement": "Em effect: ratio of the compound effect compared to the maximal effect of NS004", "setting": "[2]", "value": "+++ (>1.5 = +++)"}]}
